In US6525001B1, “Substituted pyrimidine and pyridine herbicides” (Mid-American Commercialization Corporation, priority 1997, dated 2003):

Assays:
Test in all cases: Test B pre-/postemergence
Assay type in all cases: in vivo
Set-up in all cases: key: 0 is no effect; 10 is complete control
[1] = system: bedstraw (Galium aparine)
In short: (§1)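 Scored visually 0 (none) to 10 (complete control) against untreated plants after twelve to sixteen greenhouse days. Test chemicals, formulated in surfactant-containing non-phytotoxic solvent, applied to soil after planting and, separately, onto 1- to 4-leaf (2–18 cm) plants.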

[2] = system: blackgrass (Alopecurus myosuroides)
In short: as §1

[3] = system: broadleaf signalgrass (Brachiaria decumbens)
In short: as §1

[4] = system: cocklebur (Xanthium strumarium)
In short: as §1

corn (Zea mays) = system: corn (Zea mays)
In short: as §1

[5] = system: crabgrass (Digitaria sanguinalis)
In short: as §1

[6] = system: giant foxtail (Setaria faberii)
In short: as §1

[7] = system: momingglory (Ipomoea hederacea)
In short: as §1

[8] = system: pigweed (Amaranthus retroflexus)
In short: as §1

rape (Brassica napus) = system: rape (Brassica napus)
In short: as §1

soybean (Glycine max) = system: soybean (Glycine max)
In short: as §1

[9] = system: sugar beet (Beta vulgaris)
In short: as §1

[10] = system: velvetleaf (Abutilon theophrasti)
In short: as §1

[11] = system: wheat (Triticum aestivum)
In short: as §1

[12] = Preemergence, Rate 62 g/ha, scale of 0 to 10

## Cc1cnc(-c2ccc(C(F)(F)F)cc2)nc1Cn1cc(Br)cn1 [Compound 54]
[1]; [12]
  Plant response rating, Bedstraw: 0
[1]; Rate 62 g/ha, Postemergence
  Bedstraw plant response rating: 3
[1]; Rate 125 g/ha, Postemergence
  Bedstraw plant response rating: 4
[1]; Rate 125 g/ha, Preemergence
  Plant response rating, Bedstraw: 0
[1]; Rate 250 g/ha, Postemergence
  Plant response rating, Bedstraw: 7
[1]; Rate 250 g/ha, Preemergence
  Plant response rating, Bedstraw: 1
[1]; Rate 500 g/ha, Postemergence
  Plant response rating, Bedstraw: 9
[1]; Rate 500 g/ha, Preemergence
  Plant response rating, Bedstraw: 4
[2]; [12]
  Plant response rating, Blackgrass: 0
[2]; Rate 62 g/ha, Postemergence
  Blackgrass plant response rating: 1
[2]; Rate 125 g/ha, Postemergence
  Blackgrass plant response rating: 1
[2]; Rate 125 g/ha, Preemergence
  Plant response rating, Blackgrass: 1
[2]; Rate 250 g/ha, Postemergence
  Plant response rating, Blackgrass: 2
[2]; Rate 250 g/ha, Preemergence
  Plant response rating, Blackgrass: 3
[2]; Rate 500 g/ha, Postemergence
  Plant response rating, Blackgrass: 3
[2]; Rate 500 g/ha, Preemergence
  Plant response rating, Blackgrass: 4
[3]; Rate 62 g/ha, Postemergence
  B. signalgrass plant response rating: 3
[3]; Rate 62 g/ha, Preemergence
  B. signalgrass plant response rating: 0
[3]; Rate 125 g/ha, Postemergence
  B. signalgrass plant response rating: 3
[3]; Rate 125 g/ha, Preemergence
  Plant response rating, B. signalgrass: 1
[3]; Rate 250 g/ha, Postemergence
  Plant response rating, B. signalgrass: 4
[3]; Rate 250 g/ha, Preemergence
  Plant response rating, B. signalgrass: 3
[3]; Rate 500 g/ha, Postemergence
  Plant response rating, B. signalgrass: 5
[3]; Rate 500 g/ha, Preemergence
  Plant response rating, B. signalgrass: 6
[4]; Rate 62 g/ha, Postemergence
  Cocklebur plant response rating: 3
[4]; Rate 125 g/ha, Postemergence
  Cocklebur plant response rating: 3
[4]; Rate 125 g/ha, Preemergence
  Plant response rating, Cocklebur: 0
[4]; Rate 250 g/ha, Postemergence
  Plant response rating, Cocklebur: 7
[4]; Rate 250 g/ha, Preemergence
  Plant response rating, Cocklebur: 0
[4]; Rate 500 g/ha, Postemergence
  Plant response rating, Cocklebur: 9
[4]; Rate 500 g/ha, Preemergence
  Plant response rating, Cocklebur: 0
Corn (Zea mays); [12]
  Plant response rating, Corn: 0
Corn (Zea mays); Rate 62 g/ha, Postemergence
  Corn plant response rating: 2
Corn (Zea mays); Rate 125 g/ha, Postemergence
  Corn plant response rating: 2
Corn (Zea mays); Rate 125 g/ha, Preemergence
  Plant response rating, Corn: 0
Corn (Zea mays); Rate 250 g/ha, Postemergence
  Plant response rating, Corn: 3
Corn (Zea mays); Rate 250 g/ha, Preemergence
  Plant response rating, Corn: 1
Corn (Zea mays); Rate 500 g/ha, Postemergence
  Plant response rating, Corn: 3
Corn (Zea mays); Rate 500 g/ha, Preemergence
  Plant response rating, Corn: 1
[5]; [12]
  Plant response rating, Crabgrass: 0
[5]; Rate 62 g/ha, Postemergence
  Crabgrass plant response rating: 2
[5]; Rate 125 g/ha, Postemergence
  Crabgrass plant response rating: 4
[5]; Rate 125 g/ha, Preemergence
  Plant response rating, Crabgrass: 0
[5]; Rate 250 g/ha, Postemergence
  Plant response rating, Crabgrass: 5
[5]; Rate 250 g/ha, Preemergence
  Plant response rating, Crabgrass: 3
[5]; Rate 500 g/ha, Postemergence
  Plant response rating, Crabgrass: 5
[5]; Rate 500 g/ha, Preemergence
  Plant response rating, Crabgrass: 8
[6]; [12]
  Plant response rating, Giant foxtail: 1
[6]; Rate 62 g/ha, Postemergence
  Giant foxtail plant response rating: 2
[6]; Rate 125 g/ha, Postemergence
  Giant foxtail plant response rating: 3
[6]; Rate 125 g/ha, Preemergence
  Plant response rating, Giant foxtail: 1
[6]; Rate 250 g/ha, Postemergence
  Plant response rating, Giant foxtail: 4
[6]; Rate 250 g/ha, Preemergence
  Plant response rating, Giant foxtail: 8
[6]; Rate 500 g/ha, Postemergence
  Plant response rating, Giant foxtail: 4
[6]; Rate 500 g/ha, Preemergence
  Plant response rating, Giant foxtail: 10
[7]; [12]
  Plant response rating, Morningglory: 0
[7]; Rate 62 g/ha, Postemergence
  Morningglory plant response rating: 2
[7]; Rate 125 g/ha, Postemergence
  Morningglory plant response rating: 3
[7]; Rate 125 g/ha, Preemergence
  Plant response rating, Morningglory: 1
[7]; Rate 250 g/ha, Postemergence
  Plant response rating, Morningglory: 3
[7]; Rate 250 g/ha, Preemergence
  Plant response rating, Morningglory: 2
[7]; Rate 500 g/ha, Postemergence
  Plant response rating, Morningglory: 10
[7]; Rate 500 g/ha, Preemergence
  Plant response rating, Morningglory: 2
[8]; [12]
  Plant response rating, Redroot pigweed: 1
[8]; Rate 62 g/ha, Postemergence
  Redroot pigweed plant response rating: 4
[8]; Rate 125 g/ha, Postemergence
  Redroot pigweed plant response rating: 5
[8]; Rate 125 g/ha, Preemergence
  Plant response rating, Redroot pigweed: 2
[8]; Rate 250 g/ha, Postemergence
  Plant response rating, Redroot pigweed: 6
[8]; Rate 250 g/ha, Preemergence
  Plant response rating, Redroot pigweed: 7
[8]; Rate 500 g/ha, Postemergence
  Plant response rating, Redroot pigweed: 7
[8]; Rate 500 g/ha, Preemergence
  Plant response rating, Redroot pigweed: 9
Rape (Brassica napus); [12]
  Plant response rating, Rape: 0
Rape (Brassica napus); Rate 62 g/ha, Postemergence
  Rape plant response rating: 7
Rape (Brassica napus); Rate 125 g/ha, Postemergence
  Rape plant response rating: 8
Rape (Brassica napus); Rate 125 g/ha, Preemergence
  Plant response rating, Rape: 0
Rape (Brassica napus); Rate 250 g/ha, Postemergence
  Plant response rating, Rape: 9
Rape (Brassica napus); Rate 250 g/ha, Preemergence
  Plant response rating, Rape: 3
Rape (Brassica napus); Rate 500 g/ha, Postemergence
  Plant response rating, Rape: 9
Rape (Brassica napus); Rate 500 g/ha, Preemergence
  Plant response rating, Rape: 3
Soybean (Glycine max); [12]
  Plant response rating, Soybean: 0
Soybean (Glycine max); Rate 62 g/ha, Postemergence
  Soybean plant response rating: 0
Soybean (Glycine max); Rate 125 g/ha, Postemergence
  Soybean plant response rating: 3
Soybean (Glycine max); Rate 125 g/ha, Preemergence
  Plant response rating, Soybean: 0
Soybean (Glycine max); Rate 250 g/ha, Postemergence
  Plant response rating, Soybean: 4
Soybean (Glycine max); Rate 250 g/ha, Preemergence
  Plant response rating, Soybean: 0
Soybean (Glycine max); Rate 500 g/ha, Postemergence
  Plant response rating, Soybean: 4
Soybean (Glycine max); Rate 500 g/ha, Preemergence
  Plant response rating, Soybean: 0
[9]; [12]
  Plant response rating, Sugarbeets: 0
[9]; Rate 62 g/ha, Postemergence
  Sugarbeets plant response rating: 6
[9]; Rate 125 g/ha, Postemergence
  Sugarbeets plant response rating: 7
[9]; Rate 125 g/ha, Preemergence
  Plant response rating, Sugarbeets: 1
[9]; Rate 250 g/ha, Postemergence
  Plant response rating, Sugarbeets: 9
[9]; Rate 250 g/ha, Preemergence
  Plant response rating, Sugarbeets: 7
[9]; Rate 500 g/ha, Postemergence
  Plant response rating, Sugarbeets: 9
[9]; Rate 500 g/ha, Preemergence
  Plant response rating, Sugarbeets: 9
[10]; [12]
  Plant response rating, Velvetleaf: 0
[10]; Rate 62 g/ha, Postemergence
  Velvetleaf plant response rating: 2
[10]; Rate 125 g/ha, Postemergence
  Velvetleaf plant response rating: 2
[10]; Rate 125 g/ha, Preemergence
  Plant response rating, Velvetleaf: 0
[10]; Rate 250 g/ha, Postemergence
  Plant response rating, Velvetleaf: 3
[10]; Rate 250 g/ha, Preemergence
  Plant response rating, Velvetleaf: 1
[10]; Rate 500 g/ha, Postemergence
  Plant response rating, Velvetleaf: 3
[10]; Rate 500 g/ha, Preemergence
  Plant response rating, Velvetleaf: 1
[11]; [12]
  Plant response rating, Wheat: 0
[11]; Rate 62 g/ha, Postemergence
  Wheat plant response rating: 0
[11]; Rate 125 g/ha, Postemergence
  Wheat plant response rating: 2
[11]; Rate 125 g/ha, Preemergence
  Plant response rating, Wheat: 0
[11]; Rate 250 g/ha, Postemergence
  Plant response rating, Wheat: 2
[11]; Rate 250 g/ha, Preemergence
  Plant response rating, Wheat: 0
[11]; Rate 500 g/ha, Postemergence
  Plant response rating, Wheat: 2
[11]; Rate 500 g/ha, Preemergence
  Plant response rating, Wheat: 1
